Like-named read-outs stand apart in the source and are kept apart here.
Columns and labels:
[1] = parameters: method as in PMID 12888267; details: cited from earlier work
[2] = system: FFAs; details: hypoglycemic activity, File S1, cited from earlier work
[3] = system: adrenaline hyperglycemia in mongrel white mice; test: In vivo hypoglycemic activity in the adrenaline hyperglycemia model; details: oral, 1/10 of the LD50, 1 hour prior to epinephrine hydrochloride 1 mg/kg s.c.
Description: Determination of hypoglycemic activity of 5 complexes was performed on 75 mice. Adrenaline hyperglycemia was caused by subcutaneous administration of 0.1% epinephrine hydrochloride (AGH) at a dose of 1 mg/kg. […] In each experimental group there were 3 animals and 3 replicates were performed. The content of glucose in whole blood was determined at 0.5, 1 and 2 hours after administration of AGH or glucose using portable glucose monitoring systems, OneTouch Ultra test strip and OneTouch Ultra and Clever check TD4209 and strips Clever check TD4209.

[4] = system: rat; test: Acute toxicity study, rapid method of Prozorovskii (LD50); format: in vivo; parameters: LD50exp: unit not given here; details: for LD50exp: range in brackets; for Class in AD (experimental toxicity class): rat, in vivo
Description: Acute toxicity studies were carried out by rapid method of Prozorovskii. […] The following criteria were used for the evaluation of acute toxicity: the number of dead animals, the timing of their death, LD50 through the night, the picture of intoxication, behavioral change and autopsy results of the survived animals after 14 days. Clinical examination was performed for each animal during the first hour after administration of the substance, and weekly thereafter. Clinical examination included a detailed inspection of the animal in cage, in hands and in the open area. The manifestation and severity of intoxication were noted. Examination of animals in order to identify mortality or signs of variations in health status was conducted on a daily basis. Integrated indicators were assessed weekly during the entire period of observation. Death of animals was recorded daily during entire study period. General condition and behavior of animals as well as type of toxic manifestations, including their development and termination were recorded daily during the procedures for monitoring and inspection of individual animals.

[5] = system: free fatty acids released in adipocytes; test: Insulin-mimetic action: inhibition of free fatty acid release from epinephrine-stimulated adipocytes; format: cell-based; details: rat adipocytes, 30 min with compound at 37°C, then 3 hours with epinephrine; 50% inhibition of FFA release; read-out: IC50 exp (±S.D.) (FFAs)
Description: All rats (250–300 g) and mice (22–25 g) were housed in a temperature controlled room (24°C±1°C) and they had received standard food pellets and tap water […]. At the end of the study (24 h after CIN induction), all animal test subjects were euthanized by inhalation of ether anesthesia. Rat adipocytes were prepared from the fat pads of male Wistar rats by collagenase digestion according to the method of Rodbell. Freshly prepared adipocytes were incubated (37°C, 30 min) with solutions of the vanadium compounds at three concentrations (0.1, 0.5 and 1 mM in isotonic saline and 5 mM glucose), followed by 3 hours of incubation with epinephrine. The inhibitory effect was determined in terms of the decrease of the amount free fatty acids released in adipocytes. All assays were performed in duplicate or triplicate. […] Investigations were carried out on mongrel white mice.

Molecule: Cc1occc(=O)c1[O-].Cc1occc(=O)c1[O-].[O]=[V+2] [BMOV, bis(maltolato)oxovanadium(IV)]
- LD50 [1]: 220 mg/kg
- IC50 ([2]; ref 5 (Sakurai et al. 2010)): 676 µM

Molecule: O.O.O.O.O.O.O.O.[Na+].[O]=[V-]12([O][O]1)[O][O]2.c1ccc(-c2ccccn2)nc1 [Complex I, Sodium(2,2′-Bipyridyl) oxo-diperoxovanadate(V) octahydrate]
- decreasing blood glucose level [3]: 50%
- LD50exp [4]: 108(95–122)
- Class in AD (experimental toxicity class) [4]: 3
- IC50 [5]: 720 ± 90 µM

Molecule: CC(=O)/C=C(/C)[O-].CC(=O)/C=C(/C)[O-].[O]=[V+2] [Complex II, Bis(acetylacetonato)oxo-vanadium(IV)]
- IC50 [5]: 950 ± 90 µM

Molecule: CC(C)(C)OC(=O)[N-]C(=N)N.CC(C)(C)OC(=O)[N-]C(=N)N.[O]=[V+2] [Complex III, Bis{tert-butyl[amino(imino)methyl]carbamato} oxovanadium (IV)]
- decreasing blood glucose level [3]: 42%
- LD50exp [4]: 190(170–210)
- Class in AD (experimental toxicity class) [4]: 3
- IC50 [5]: 540 ± 70 µM

Molecule: O=C([O-])C([O-])C([O-])C(=O)[O-].O=C([O-])C([O-])C([O-])C(=O)[O-].[K+].[K+].[K+].[K+].[O]=[V+2].[O]=[V+2] (stereo not drawn) [Complex IV, Potassium bis((m2-d,d-tartrato-O,O′,O′′,O′′′)-oxo-vanadium(IV)) dihydrate]
- IC50 [5]: 950 ± 100 µM

Molecule: O=C1[O][V+4]2(=[O])([O]C(=O)c3c(O)ccc[n+]32)[n+]2cccc(O)c21 [VO(3hpa)2]
- IC50 ([2]; ref 1 (Sakurai, Yasui 2003)): 470 µM

Molecule: Cc1ccc[n+]2c1C(=O)[O][V+4]21(=[O])[O]C(=O)c2c(C)ccc[n+]21 [VO(3mpa)2]
- IC50 ([2]; ref 3 (Sakurai et al. 2000)): 660 µM

Molecule: O=C1[O][V+4]2(=[O])([O]C(=O)c3cc(Cl)cc[n+]32)[n+]2ccc(Cl)cc21 [VO(4clpa)2]
- IC50 ([2]; ref 3 (Sakurai et al. 2000)): 700 µM

Molecule: O=C1[O][V+4]2(=[O])([O]C(=O)c3ccc(I)c[n+]32)[n+]2cc(I)ccc21 [VO(5ipa)2]
- IC50 ([2]; ref 3 (Sakurai et al. 2000)): 450 µM

Molecule: CCc1cccc2[n+]1[V+4]1(=[O])([O]C2=O)[O]C(=O)c2cccc(CC)[n+]21 [VO(6epa)2]
- IC50 ([2]; ref 4 (Sasagawa et al. 2002)): 810 µM

Molecule: O=C1[O][V+4]2(=[O])([O]C(=O)c3cccc(O)[n+]32)[n+]2c(O)cccc21 [VO(6hpa)2]
- IC50 ([2]; ref 1 (Sakurai, Yasui 2003)): 800 µM

Molecule: Cc1cccc2[n+]1[V+4]1(=[O])([O]C2=O)[O]C(=O)c2cccc(C)[n+]21 [VO(6mpa)2]
- IC50 ([2]; ref 3 (Sakurai et al. 2000)): 490 µM

Molecule: CCCCCC1=C2[O][V+4]3(=[O])([O]C4=C(CCCCC)OC(C)=C(OC)C4=[O+]3)[O+]=C2C(OC)=C(C)O1 [VO(alx)2]
- IC50 ([2]; ref 5 (Sakurai et al. 2010)): 553 µM

Molecule: [O]=[V+4]12([O][n+]3ccccc3[S]1)[O][n+]1ccccc1[S]2 [VO(opt)2]
- IC50 ([2]; ref 6 (Sakurai et al. 1999)): 190 µM

Molecule: O=C1[O][V+4]2(=[O])([O]C(=O)c3cccc[n+]32)[n+]2ccccc21 [VO(pic)2]
- IC50 ([2]; ref 3 (Sakurai et al. 2000)): 590 µM

Molecule: O=S(=O)([O-])[O-].[O]=[V+2] [VOSO4, Vanadyl sulfate]
- decreasing blood glucose level [3]: 16%
- LD50exp [4]: 448(356–540)
- Class in AD (experimental toxicity class) [4]: 3
- IC50 ([2]; ref 1 (Sakurai, Yasui 2003)): 840 µM
- IC50 [5]: 1000 ± 90 µM

Molecule: Cc1cccc2[n+]1[Zn+2]1([O]C2=O)[O]C(=O)c2cccc(C)[n+]21 [Zn(6mpa)2]
- IC50 ([2]; ref 7 (Yoshikawa et al. 2002)): 310 µM

Molecule: O=C[C@@H]1CC(=O)[NH][Zn@@+2]2([NH]C(=O)C[C@H](C=O)[NH]2)[NH]1 [Zn(L-Asn)2]
- IC50 ([2]; ref 8 (Yoshikawa et al. 2001)): 650 µM

Molecule: O=C[C@H]1CCC[N]1[Zn+2][N]1CCC[C@@H]1C=O [Zn(L-Pro)2]
- IC50 ([2]; ref 8 (Yoshikawa et al. 2001)): 890 µM

Molecule: C[C@@H](O)[C@H]1[NH][Zn+2]2([NH][C@H]([C@@H](C)O)C(=O)[O]2)[O]C1=O [Zn(L-Thr)2]
- IC50 ([2]; ref 8 (Yoshikawa et al. 2001)): 540 µM

Molecule: CC(C)[C@H](C=O)[NH][Zn+2][NH][C@H](C=O)C(C)C [Zn(L-Val)2]
- IC50 ([2]; ref 8 (Yoshikawa et al. 2001)): 770 µM

Molecule: Cc1occc(=O)c1[O][Zn+2][O]c1c(C)occc1=O [Zn(maltolat)2]
- IC50 ([2]; ref 7 (Yoshikawa et al. 2002)): 590 µM

Molecule: O=C1[O][Zn+2]2([O]C(=O)c3cccc[n+]32)[n+]2ccccc21 [Zn(pic)2]
- IC50 ([2]; ref 7 (Yoshikawa et al. 2002)): 640 µM

Molecule: O=S1(=O)[O][Zn+2][O]1 [ZnSO4]
- IC50 ([2]; ref 8 (Yoshikawa et al. 2001)): 810 µM

Molecule: O=S(=O)(O)[O][V+4]123(=[O])[O]c4ccccc4C[N+]1(Cc1cccc[n+]12)Cc1cccc[n+]13 (stereo not drawn) [[VIVO(bp-O)HSO4]]
- IC50 ([2]; ref 9 (Nilsson et al. 2009)): 3850 µM

Molecule: COC(=O)[C@@H](Cc1c[nH]c2ccccc12)NC(=O)c1ccc2[n+](c1)[V+4]1(=[O])([O]C2=O)[O]C(=O)c2ccc(C(=O)N[C@H](Cc3c[nH]c4ccccc34)C(=O)OC)c[n+]21 [[VIVO(pic-trpMe)2]]
- IC50 ([2]; ref 9 (Nilsson et al. 2009)): 410 µM

Molecule: O=S(=O)([O-])[O-].[O]=[V+2].c1ccc(CN(Cc2ccccn2)Cc2ccccn2)nc1 [[VIVO(tpa)SO4]]
- IC50 ([2]; ref 9 (Nilsson et al. 2009)): 4600 µM

Molecule: O=C(N[C@H](Cc1c[nH]c2ccccc12)C(=O)O)c1ccc2[n+](c1)[V+4]1(=[O])([O]C2=O)[n+]2ccccc2C[N+]1(Cc1ccccn1)Cc1ccccn1 [[VVO(pic-trpH)tpa]2+]
- IC50 ([2]; ref 9 (Nilsson et al. 2009)): 1840 µM

Molecule: [O]=[V+4]12([O]C3=COC=C[C@@H]3[O]1)[O]C1=COC=C[C@H]1[O]2 [bis(3-hydroxy-4-pyronato)oxovanadium(IV)]
- IC50 ([2]; ref 2 (Sakurai et al. 2008)): 1180 µM

Molecule: CCC1=C2[O][V+4]3(=[O])([O]C4=C(CC)OC=C[C@@H]4[O]3)[O][C@H]2C=CO1 [bis(ethylmaltolato)oxovanadium(IV)]
- IC50 ([2]; ref 5 (Sakurai et al. 2010)): 632 µM

Molecule: (S)-[2-(N-salicylidene) amino-propionate] oxovanadium(IV) monohydrate [Complex V]
- decreasing blood glucose level [3]: 26%
- LD50exp [4]: 245(210–280)
- Class in AD (experimental toxicity class) [4]: 3
- IC50 [5]: 810 ± 60 µM
